As usually defined, the IC50 is the midpoint of a concentration-inhibition curve. One may read the Ki as a measure of affinity in units of concentration, obtained from inhibition or displacement.

The values below come from ChEMBL document CHEMBL1909046, “DrugMatrix in vitro pharmacology data”.

Experiment [1] deals with T1, Angiotensin-converting enzyme (Oryctolagus cuniculus, UniProt P12822).
T1 sequence (P12822 whole entry): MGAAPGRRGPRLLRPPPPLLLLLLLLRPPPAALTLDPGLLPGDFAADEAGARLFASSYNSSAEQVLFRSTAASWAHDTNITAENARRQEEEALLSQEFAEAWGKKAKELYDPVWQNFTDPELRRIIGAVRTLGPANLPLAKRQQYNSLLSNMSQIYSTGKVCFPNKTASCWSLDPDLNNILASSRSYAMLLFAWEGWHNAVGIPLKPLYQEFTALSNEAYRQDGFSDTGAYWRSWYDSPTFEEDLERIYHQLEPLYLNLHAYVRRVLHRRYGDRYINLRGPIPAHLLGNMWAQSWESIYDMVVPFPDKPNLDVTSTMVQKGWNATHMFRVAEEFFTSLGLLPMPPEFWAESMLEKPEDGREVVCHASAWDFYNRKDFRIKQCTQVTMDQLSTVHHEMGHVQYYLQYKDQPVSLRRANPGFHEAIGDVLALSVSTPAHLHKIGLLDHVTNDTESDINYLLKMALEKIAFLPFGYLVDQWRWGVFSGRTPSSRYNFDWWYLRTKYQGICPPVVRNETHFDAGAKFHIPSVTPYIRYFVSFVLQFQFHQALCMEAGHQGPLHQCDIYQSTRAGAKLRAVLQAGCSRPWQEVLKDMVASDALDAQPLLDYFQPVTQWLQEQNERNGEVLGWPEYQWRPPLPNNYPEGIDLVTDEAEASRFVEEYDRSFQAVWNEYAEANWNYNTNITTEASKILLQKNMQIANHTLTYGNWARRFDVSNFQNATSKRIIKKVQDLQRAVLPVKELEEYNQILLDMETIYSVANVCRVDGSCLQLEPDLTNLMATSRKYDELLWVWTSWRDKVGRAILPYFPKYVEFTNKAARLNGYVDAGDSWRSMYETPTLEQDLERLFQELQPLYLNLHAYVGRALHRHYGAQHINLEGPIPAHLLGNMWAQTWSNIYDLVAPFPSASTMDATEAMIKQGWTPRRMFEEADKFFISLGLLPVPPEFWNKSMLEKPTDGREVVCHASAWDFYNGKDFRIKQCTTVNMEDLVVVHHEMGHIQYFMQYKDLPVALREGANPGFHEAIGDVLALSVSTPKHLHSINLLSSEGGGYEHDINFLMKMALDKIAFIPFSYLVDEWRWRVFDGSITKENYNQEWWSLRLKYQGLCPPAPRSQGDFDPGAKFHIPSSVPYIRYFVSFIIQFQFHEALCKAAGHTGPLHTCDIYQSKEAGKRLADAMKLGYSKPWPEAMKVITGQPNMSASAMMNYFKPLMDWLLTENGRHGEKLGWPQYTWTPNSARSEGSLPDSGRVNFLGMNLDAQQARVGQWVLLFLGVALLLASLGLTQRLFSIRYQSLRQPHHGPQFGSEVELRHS
The format is tissue-based, Lung.

The target of experiment [2] is Sodium-dependent noradrenaline transporter (Homo sapiens, UniProt P23975). Put plainly: DRUGMATRIX: Norepinephrine Transporter radioligand binding (ligand: [125I] RTI-55). It counts as cell membranes, MDCK, Membrane. To be noted: Not Active = under 50% inhibition at 10 µM; for Ki: read-out: Ki.
The next experiment has as its target T2, B2 bradykinin receptor (Homo sapiens, UniProt P30411). Further: in other assays of this panel Not Active means under 50% inhibition at 10 µM.
T2 sequence (P30411 whole entry): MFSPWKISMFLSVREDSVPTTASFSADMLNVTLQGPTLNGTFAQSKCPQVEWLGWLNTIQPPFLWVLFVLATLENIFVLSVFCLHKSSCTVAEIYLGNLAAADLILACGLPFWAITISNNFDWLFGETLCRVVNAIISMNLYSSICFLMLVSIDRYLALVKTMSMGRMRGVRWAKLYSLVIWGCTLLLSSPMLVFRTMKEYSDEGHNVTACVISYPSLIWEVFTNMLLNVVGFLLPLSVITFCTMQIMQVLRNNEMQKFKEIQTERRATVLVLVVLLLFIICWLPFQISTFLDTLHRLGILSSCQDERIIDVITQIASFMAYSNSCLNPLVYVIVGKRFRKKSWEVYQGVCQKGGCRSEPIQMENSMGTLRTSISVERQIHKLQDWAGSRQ
It counts as cell membranes, Membrane. To be noted: chem-1.

In experiment [3] the target is T3, 3-hydroxy-3-methylglutaryl-coenzyme A reductase (Homo sapiens, UniProt P04035).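 Further: enzyme inhibition assay of HMG-CoA reductase using radiolabeled [14C]HMG-CoA as substrate; in other assays of this panel Not Active means under 50% inhibition at 10 µM.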
T3 sequence (P04035 whole entry): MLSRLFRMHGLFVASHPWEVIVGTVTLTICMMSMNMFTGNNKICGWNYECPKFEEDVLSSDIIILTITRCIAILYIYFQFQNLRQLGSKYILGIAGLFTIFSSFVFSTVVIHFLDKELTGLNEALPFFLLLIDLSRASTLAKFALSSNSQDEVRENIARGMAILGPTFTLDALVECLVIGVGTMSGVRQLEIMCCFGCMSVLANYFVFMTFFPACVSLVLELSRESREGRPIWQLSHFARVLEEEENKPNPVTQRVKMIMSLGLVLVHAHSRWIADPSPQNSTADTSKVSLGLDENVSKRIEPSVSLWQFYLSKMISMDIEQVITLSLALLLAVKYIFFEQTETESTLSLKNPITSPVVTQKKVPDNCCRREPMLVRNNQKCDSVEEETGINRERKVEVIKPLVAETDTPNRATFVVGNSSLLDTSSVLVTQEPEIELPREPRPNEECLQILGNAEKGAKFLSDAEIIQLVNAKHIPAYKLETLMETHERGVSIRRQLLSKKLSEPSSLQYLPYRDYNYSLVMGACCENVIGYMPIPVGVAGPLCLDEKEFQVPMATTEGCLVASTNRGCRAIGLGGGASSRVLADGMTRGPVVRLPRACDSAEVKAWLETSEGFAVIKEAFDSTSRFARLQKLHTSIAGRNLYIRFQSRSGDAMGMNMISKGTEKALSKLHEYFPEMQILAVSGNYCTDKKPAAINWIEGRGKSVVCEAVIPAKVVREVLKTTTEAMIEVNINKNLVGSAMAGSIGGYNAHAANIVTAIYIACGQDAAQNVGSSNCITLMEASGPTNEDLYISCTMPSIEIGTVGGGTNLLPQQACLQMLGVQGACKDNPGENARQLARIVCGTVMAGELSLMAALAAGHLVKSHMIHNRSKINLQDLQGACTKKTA
Also noted: species or system Escherichia coli.

The next experiment has as its target Insulin receptor (Rattus norvegicus, UniProt P15127). The format is cell membranes, Wistar, Liver, Membrane. Further: in other assays of this panel Not Active means under 50% inhibition at 10 µM.
The next experiment deals with Adenosine receptor A2a (Homo sapiens, UniProt P29274). Briefly: DRUGMATRIX: Adenosine A2A radioligand binding (ligand: […]). It counts as cell membranes, HEK293, Membrane. Particulars: Not Active = under 50% inhibition at 10 µM.
Adenosine receptor A2a, sequence (P29274 whole entry): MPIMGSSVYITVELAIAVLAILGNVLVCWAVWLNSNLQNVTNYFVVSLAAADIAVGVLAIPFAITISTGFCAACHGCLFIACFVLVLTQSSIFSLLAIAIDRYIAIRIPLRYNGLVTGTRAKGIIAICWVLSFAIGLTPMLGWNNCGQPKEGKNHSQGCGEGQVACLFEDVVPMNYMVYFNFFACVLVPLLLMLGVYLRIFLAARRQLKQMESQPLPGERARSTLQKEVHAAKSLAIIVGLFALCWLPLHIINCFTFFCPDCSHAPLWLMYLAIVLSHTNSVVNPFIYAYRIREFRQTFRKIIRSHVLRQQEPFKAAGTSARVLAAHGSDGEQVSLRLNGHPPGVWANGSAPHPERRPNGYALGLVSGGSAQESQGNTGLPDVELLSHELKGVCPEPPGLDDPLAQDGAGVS

Insulin receptor, sequence (P15127 27-759 limits assumed): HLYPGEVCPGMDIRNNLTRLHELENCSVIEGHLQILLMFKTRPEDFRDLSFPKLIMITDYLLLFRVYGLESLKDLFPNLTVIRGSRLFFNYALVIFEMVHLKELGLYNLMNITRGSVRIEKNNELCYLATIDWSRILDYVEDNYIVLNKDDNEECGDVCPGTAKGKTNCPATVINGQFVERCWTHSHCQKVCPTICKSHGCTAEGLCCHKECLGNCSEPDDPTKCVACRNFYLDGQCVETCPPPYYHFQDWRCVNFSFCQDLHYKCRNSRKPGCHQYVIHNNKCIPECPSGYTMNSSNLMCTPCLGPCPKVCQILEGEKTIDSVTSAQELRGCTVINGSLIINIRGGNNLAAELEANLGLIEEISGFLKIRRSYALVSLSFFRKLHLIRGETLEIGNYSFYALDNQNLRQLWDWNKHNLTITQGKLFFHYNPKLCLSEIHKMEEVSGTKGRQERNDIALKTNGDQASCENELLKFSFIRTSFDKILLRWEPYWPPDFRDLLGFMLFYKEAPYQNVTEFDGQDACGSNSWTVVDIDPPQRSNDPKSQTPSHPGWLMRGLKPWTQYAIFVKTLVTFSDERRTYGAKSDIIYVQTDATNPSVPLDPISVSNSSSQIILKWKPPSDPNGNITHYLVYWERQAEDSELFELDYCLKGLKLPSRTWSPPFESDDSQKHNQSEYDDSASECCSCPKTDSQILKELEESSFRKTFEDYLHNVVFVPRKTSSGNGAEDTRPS
Insulin receptor, sequence (P15127 764-1383 limits assumed): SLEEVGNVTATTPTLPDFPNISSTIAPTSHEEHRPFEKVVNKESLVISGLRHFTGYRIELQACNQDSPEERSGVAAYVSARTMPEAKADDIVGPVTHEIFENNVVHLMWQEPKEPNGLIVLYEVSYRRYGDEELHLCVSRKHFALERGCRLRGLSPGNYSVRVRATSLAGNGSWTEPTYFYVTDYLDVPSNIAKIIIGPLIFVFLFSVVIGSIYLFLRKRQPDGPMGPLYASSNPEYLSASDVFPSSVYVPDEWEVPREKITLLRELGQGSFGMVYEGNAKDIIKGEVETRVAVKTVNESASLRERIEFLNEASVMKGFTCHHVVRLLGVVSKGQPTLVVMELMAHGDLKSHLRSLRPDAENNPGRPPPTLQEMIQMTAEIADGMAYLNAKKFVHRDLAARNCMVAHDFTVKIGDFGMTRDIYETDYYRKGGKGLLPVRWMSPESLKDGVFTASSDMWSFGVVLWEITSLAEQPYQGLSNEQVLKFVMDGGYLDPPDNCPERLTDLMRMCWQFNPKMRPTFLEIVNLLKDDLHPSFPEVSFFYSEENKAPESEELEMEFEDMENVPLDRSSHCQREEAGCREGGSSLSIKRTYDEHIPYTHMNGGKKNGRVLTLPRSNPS
Sodium-dependent noradrenaline transporter, sequence (P23975 whole entry): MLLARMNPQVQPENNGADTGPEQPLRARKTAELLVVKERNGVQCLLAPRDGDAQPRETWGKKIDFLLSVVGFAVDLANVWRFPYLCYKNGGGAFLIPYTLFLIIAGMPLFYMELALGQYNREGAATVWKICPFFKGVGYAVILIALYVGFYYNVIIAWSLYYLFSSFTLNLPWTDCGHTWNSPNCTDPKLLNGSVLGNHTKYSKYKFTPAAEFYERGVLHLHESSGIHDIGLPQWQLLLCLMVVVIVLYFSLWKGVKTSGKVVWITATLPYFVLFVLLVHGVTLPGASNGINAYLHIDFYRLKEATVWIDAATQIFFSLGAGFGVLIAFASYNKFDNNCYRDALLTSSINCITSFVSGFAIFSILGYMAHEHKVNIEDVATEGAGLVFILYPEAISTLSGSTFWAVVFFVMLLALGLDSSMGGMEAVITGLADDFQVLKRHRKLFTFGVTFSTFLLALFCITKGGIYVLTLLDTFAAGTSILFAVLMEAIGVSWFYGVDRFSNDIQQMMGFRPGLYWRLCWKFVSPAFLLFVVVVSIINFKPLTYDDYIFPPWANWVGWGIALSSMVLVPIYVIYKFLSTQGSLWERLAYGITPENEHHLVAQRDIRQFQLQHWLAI

Consider `Nn1nnc2ccccc21`, for which the IC50 result (in experiment [1]; in experiment [2] (mdck); against B2 bradykinin receptor; in experiment [3]; against Insulin receptor; on Adenosine receptor A2a (hek293)) was “Not Active” each time.

For the molecule `CC[C@]1(O)CC[C@H]2[C@@H]3CCC4=CCCC[C@@H]4[C@H]3CC[C@@]21C`, the IC50 entry in experiment [1] is “Not Active”; in experiment [2] (read-out: IC50), 2.1 µM; on B2 bradykinin receptor, “Not Active”; in experiment [3] it was “Not Active”; on Insulin receptor, “Not Active”; on Adenosine receptor A2a (hek293), “Not Active”. For the same molecule, in experiment [2], the Ki amounted to 2.08 µM.

As to `N[C@@H](Cc1ccc(F)cc1)C(=O)O`, the IC50 result (in experiment [1]; in experiment [2] (mdck); against B2 bradykinin receptor; in experiment [3]; on Insulin receptor; at Adenosine receptor A2a (hek293)) was “Not Active” throughout.

As to `CCOC(=O)[C@H](CCc1ccccc1)N[C@@H](C)C(=O)N1Cc2ccccc2C[C@H]1C(=O)O`, the IC50 entry (in experiment [2] (mdck); on B2 bradykinin receptor; in experiment [3]; on Insulin receptor; on Adenosine receptor A2a (hek293)) was “Not Active” each time.

Consider `O=C(c1ccccc1Cl)N1CCC(Cc2ccccc2)CC1`, for which the concentration for half-maximal inhibition (IC50) entry (in experiment [1]; in experiment [2] (mdck); on B2 bradykinin receptor; in experiment [3]; on Insulin receptor; on Adenosine receptor A2a (hek293)) was “Not Active” throughout.

Take `CCOC(=O)[C@H](CCc1ccccc1)N[C@@H](C)C(=O)N1CCC[C@H]1C(=O)O`: the IC50 result (in experiment [2] (mdck); against B2 bradykinin receptor; in experiment [3]; at Insulin receptor; at Adenosine receptor A2a (hek293)) was “Not Active” throughout.

Take `Clc1cc2c(cc1Cl)Oc1cc(Cl)c(Cl)cc1O2` [2,3,7,8-TETRACHLORODIBENZO-P-DIOXIN]: the IC50 entry (in experiment [1]; in experiment [2] (mdck); against B2 bradykinin receptor; in experiment [3]; at Insulin receptor; on Adenosine receptor A2a (hek293)) was “Not Active” throughout.

For `C=C1/C(=C\C=C2/CCC[C@]3(C)[C@@H]([C@H](C)CCCC(C)C)CC[C@@H]23)C[C@@H](O)C[C@@H]1O` [ALFACALCIDOL], the IC50 entry (in experiment [1]; at B2 bradykinin receptor; in experiment [3]; against Insulin receptor; at Adenosine receptor A2a (hek293)) was “Not Active” each time.

Regarding `CCCCCC[C@H]1C(=O)O[C@H](C)[C@H](NC(=O)c2cccc(NC=O)c2O)C(=O)O[C@@H](C)[C@@H]1OC(=O)CC(C)C` [ANTIMYCIN A], the IC50 result (in experiment [1]; in experiment [2] (mdck); against B2 bradykinin receptor; in experiment [3]; at Insulin receptor; at Adenosine receptor A2a (hek293)) was “Not Active” each time.

With `C[C@@H]1CC[C@H]2[C@@H](C)C(=O)O[C@@H]3O[C@@]4(C)CC[C@@H]1[C@]32OO4` [ARTEMISININ], the IC50 result (in experiment [1]; in experiment [2] (mdck); at B2 bradykinin receptor; in experiment [3]; on Insulin receptor; on Adenosine receptor A2a (hek293)) was “Not Active” each time.

Consider `CO[C@H]1[C@@H](O)[C@H](N)[C@@H](O[C@H]2O[C@H]([C@H](C)N)CC[C@H]2N)[C@H](O)[C@@H]1N(C)C(=O)CN` [ASTROMICIN], for which the IC50 entry (in experiment [1]; in experiment [2] (mdck); at B2 bradykinin receptor; in experiment [3]; at Insulin receptor; at Adenosine receptor A2a (hek293)) was “Not Active” throughout.

Consider `C#C[C@]1(O)CC[C@H]2[C@@H]3CCC4=Cc5oncc5C[C@]4(C)[C@H]3CC[C@@]21C` [DANAZOL], for which the IC50 result (in experiment [1]; at B2 bradykinin receptor; in experiment [3]; at Insulin receptor; on Adenosine receptor A2a (hek293)) was “Not Active” in each case.

In the case of `C#C[C@]1(O)CC[C@H]2[C@@H]3CCc4cc(O)ccc4[C@H]3CC[C@@]21C` [ETHINYL ESTRADIOL], the IC50 result in experiment [1] is “Not Active”; against B2 bradykinin receptor, “Not Active”; in experiment [3] it was “Not Active”; at Insulin receptor, “Not Active”; on Adenosine receptor A2a (read-out: IC50), 20.9 µM. Also, the Ki on Adenosine receptor A2a (read-out: Ki) was found to be 11.8 µM.

In the case of `Cc1cnc(C(=O)NCCc2ccc(S(=O)(=O)NC(=O)NC3CCCCC3)cc2)cn1` [GLIPIZIDE], the IC50 result (in experiment [1]; in experiment [2] (mdck); on B2 bradykinin receptor; against Insulin receptor; on Adenosine receptor A2a (hek293)) was “Not Active” each time.

As for `C[C@]12CCC(=O)C=C1CC[C@@H]1[C@@H]2[C@@H](O)C[C@@]2(C)[C@H]1CC[C@]2(O)C(=O)CO` [HYDROCORTISONE], the IC50 result (in experiment [1]; on B2 bradykinin receptor; in experiment [3]; against Insulin receptor; on Adenosine receptor A2a (hek293)) was “Not Active” throughout.

As to `CC[C@H](C)C(=O)O[C@H]1C[C@@H](C)C=C2C=C[C@H](C)[C@H](CC[C@@H]3C[C@@H](O)CC(=O)O3)[C@H]21` [LOVASTATIN], the IC50 result was “Not Active” in experiment [1]; 8.75 µM in experiment [2] (read-out: IC50); “Not Active” on B2 bradykinin receptor; “Not Active” on Insulin receptor; “Not Active” on Adenosine receptor A2a (hek293). The Ki in experiment [2] was 8.68 µM.

Take `CC[C@H](C)C(=O)O[C@H]1C[C@H](O)C=C2C=C[C@H](C)[C@H](CC[C@@H](O)C[C@@H](O)CC(=O)O)[C@H]21` [PRAVASTATIN]: the IC50 result (in experiment [1]; in experiment [2] (mdck); on B2 bradykinin receptor; at Insulin receptor; on Adenosine receptor A2a (hek293)) was “Not Active” in each case.
